The target in one assay is T1, FKBP-GSK3β-GFP (Homo sapiens, UniProt P62942).
T1 construct: expressed in transfected cells; host or cells: COS1 cells
In words: Sub-cellular localization of FKBP-GSK3β-GFP with FRB(TLW)-NES and FRB(KTF)-NLS in COS1 cells. It is filed as cell-based. To be noted: 10 nM, 1 hour. The procedure: COS1 cells were electroporated with 1 μg pS-FKBP-GSK3β-GFP, 1 μg of the ‘exporter’ pBJ5-FRB(TLW)-Exp-HA containing a nuclear export sequence derived from the rev protein of Human Immunodeficiency Virus and 3 μg of the ‘importer’ pBJ5-FRB(KTF)-Imp with a nuclear localization sequence from SV40 Large T antigen. Cells were plated on autoclaved coverslips and incubated 36 hours followed by 1 hour of rapalog treatment (10 nM). Cells were fixed 10 minutes in 4% paraformaldeyde/PBS at 4° C. and mounted for microscopy with DAPI to visualize the nucleus. Microscopy was perfomed with a Leica confocal microscope and Leica software.

The next assay concerns mutant FRBs. In words: SeAP transcriptional switch assay, panel of FRB mutants at 2095, 2098, 2101. Type of assay: cell-based, human. To be noted: Phe at 2101. The procedure:
All FRB mutants were prepared by the Quikchange mutagenesis method (Stratagene) using protocols provided by the manufacturer. Briefly, PCR reactions containing the parent plasmid pBJ5-FRB-VP16-HA or pBJ5-FRB*-VP16-HA and overlapping oligonucleotides containing the relevant base changes were performed with Pfu polymerase (Stratagene, San Diego, Calif.). PCR reactions were digested with the methylation sensitive restriction endonuclease Dpn1 to eliminate the parent plasmid and the reaction was transformed in XL10-Gold Ultracompetent E. coli (Stratagene).
Electroporation details are available upon request. Cells were immediately aliquoted to 2 or 3×96 well plates with flat bottoms. […] Data was analysed with Softmax Pro (Molecular Devices), Microsoft Excel and Prism 3 (GraphPad Software).

T1 sequence (P62942 whole entry): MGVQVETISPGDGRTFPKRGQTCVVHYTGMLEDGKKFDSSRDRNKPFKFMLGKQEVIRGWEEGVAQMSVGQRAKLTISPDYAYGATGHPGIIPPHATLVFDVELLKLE

As for “C16-(S)Butylsulfonylrapamycin [C16-BSrap, reference compound]”, at FKBP-GSK3β-GFP, the “sub-cellular localization of GSK3β” value was “localized to the cytoplasm”. In addition, the “binding to mutant FRBs with Phe substituted at amino acid 2101” value in the assay with mutant FRBs is “little or no binding”.
